Results from paper PMC3639963, “A New Class of Small Molecule Inhibitor of BMP Signaling” (PLoS ONE, 2013).

Assays:
Assay in all cases: Nanosyn kinase profiling
Format in all cases: biochemical
Conditions in all cases: read-out: Percentage inhibition; for inhibition at 0.1 µM: 0.1 µM inhibitor; for inhibition at 1 µM: 1 µM inhibitor
EPHB2 = biological target: T1, EPHB2 (Homo sapiens, UniProt P29323)
T1 construct: purchased Nanosyn (enzymatic panel); SGC in-house recombinant human kinases (DSF panel); Invitrogen (ALK1-6)
T1 sequence (P29323 19-1055): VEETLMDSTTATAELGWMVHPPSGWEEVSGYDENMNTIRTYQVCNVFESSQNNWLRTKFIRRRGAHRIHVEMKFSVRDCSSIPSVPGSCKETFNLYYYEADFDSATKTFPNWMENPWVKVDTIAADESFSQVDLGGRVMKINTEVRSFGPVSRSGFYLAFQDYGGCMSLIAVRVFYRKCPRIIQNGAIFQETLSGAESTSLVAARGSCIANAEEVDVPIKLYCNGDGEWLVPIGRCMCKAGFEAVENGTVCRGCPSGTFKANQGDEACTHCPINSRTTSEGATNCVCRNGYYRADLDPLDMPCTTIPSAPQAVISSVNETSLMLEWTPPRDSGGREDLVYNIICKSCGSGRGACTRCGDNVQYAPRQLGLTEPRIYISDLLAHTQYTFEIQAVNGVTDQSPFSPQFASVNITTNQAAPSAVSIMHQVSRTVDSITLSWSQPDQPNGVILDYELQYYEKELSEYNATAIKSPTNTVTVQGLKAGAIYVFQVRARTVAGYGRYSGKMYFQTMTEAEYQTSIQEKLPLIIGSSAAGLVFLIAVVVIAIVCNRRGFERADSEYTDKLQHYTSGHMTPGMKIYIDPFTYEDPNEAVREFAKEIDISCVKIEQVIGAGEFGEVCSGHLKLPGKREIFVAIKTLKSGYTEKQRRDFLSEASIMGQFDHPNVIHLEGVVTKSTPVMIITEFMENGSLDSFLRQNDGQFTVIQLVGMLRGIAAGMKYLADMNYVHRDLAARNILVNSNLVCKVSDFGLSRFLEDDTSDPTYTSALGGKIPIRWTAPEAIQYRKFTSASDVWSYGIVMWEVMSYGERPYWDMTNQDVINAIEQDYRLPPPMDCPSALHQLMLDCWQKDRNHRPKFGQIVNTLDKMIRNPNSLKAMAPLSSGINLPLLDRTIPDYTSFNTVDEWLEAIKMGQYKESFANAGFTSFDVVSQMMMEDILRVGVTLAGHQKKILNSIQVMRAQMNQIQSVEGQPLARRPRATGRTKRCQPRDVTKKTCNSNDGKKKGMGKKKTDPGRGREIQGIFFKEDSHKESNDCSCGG
Outline: (§1)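 Percent inhibition of each kinase was measured with the inhibitor at 0.1 µM and at 1 µM, as part of a 200-kinase human selectivity panel.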

LOK = biological target: T2, LOK (Homo sapiens, UniProt O94804)
T2 construct: purchased Nanosyn (enzymatic panel); SGC in-house recombinant human kinases (DSF panel); Invitrogen (ALK1-6)
Outline: as §1

PAK5 = biological target: T3, PAK5 (Homo sapiens, UniProt Q9P286)
T3 construct: purchased Nanosyn (enzymatic panel); SGC in-house recombinant human kinases (DSF panel); Invitrogen (ALK1-6)
Outline: as §1

TRKA = biological target: T4, TRKA (Homo sapiens, UniProt P04629)
T4 construct: purchased Nanosyn (enzymatic panel); SGC in-house recombinant human kinases (DSF panel); Invitrogen (ALK1-6)
Outline: as §1

PKCη = biological target: T5, PKCη (Homo sapiens, UniProt P24723)
T5 construct: purchased Nanosyn (enzymatic panel); SGC in-house recombinant human kinases (DSF panel); Invitrogen (ALK1-6)
Outline: as §1

DAPK1 = biological target: T6, DAPK1 (Homo sapiens, UniProt P53355)
T6 construct: purchased Nanosyn (enzymatic panel); SGC in-house recombinant human kinases (DSF panel); Invitrogen (ALK1-6)
Outline: as §1

FES = biological target: T7, FES (Homo sapiens, UniProt P07332)
T7 construct: purchased Nanosyn (enzymatic panel); SGC in-house recombinant human kinases (DSF panel); Invitrogen (ALK1-6)
Outline: as §1

KDR = biological target: T8, KDR (Homo sapiens, UniProt P35968)
T8 construct: purchased Nanosyn (enzymatic panel); SGC in-house recombinant human kinases (DSF panel); Invitrogen (ALK1-6)
Outline: as §1

CDK1/cycB = biological target: T9, CDK1/cycB (Homo sapiens, UniProt P06493)
T9 construct: purchased Nanosyn (enzymatic panel); SGC in-house recombinant human kinases (DSF panel); Invitrogen (ALK1-6)
Outline: as §1

JNK2 = biological target: T10, JNK2 (Homo sapiens, UniProt P45984)
T10 construct: purchased Nanosyn (enzymatic panel); SGC in-house recombinant human kinases (DSF panel); Invitrogen (ALK1-6)
Outline: as §1

CDK4/cycD = biological target: T11, CDK4/cycD (Homo sapiens, UniProt P11802)
T11 construct: purchased Nanosyn (enzymatic panel); SGC in-house recombinant human kinases (DSF panel); Invitrogen (ALK1-6)
Outline: as §1

PAK3 = biological target: T12, PAK3 (Homo sapiens, UniProt O75914)
T12 construct: purchased Nanosyn (enzymatic panel); SGC in-house recombinant human kinases (DSF panel); Invitrogen (ALK1-6)
Outline: as §1

CAMK2δ = biological target: T13, CAMK2δ (Homo sapiens, UniProt Q13557)
T13 construct: purchased Nanosyn (enzymatic panel); SGC in-house recombinant human kinases (DSF panel); Invitrogen (ALK1-6)
Outline: as §1

GSK3α = biological target: T14, GSK3α (Homo sapiens, UniProt P49840)
T14 construct: purchased Nanosyn (enzymatic panel); SGC in-house recombinant human kinases (DSF panel); Invitrogen (ALK1-6)
Outline: as §1

PKCα = biological target: T15, PKCα (Homo sapiens, UniProt P17252)
T15 construct: purchased Nanosyn (enzymatic panel); SGC in-house recombinant human kinases (DSF panel); Invitrogen (ALK1-6)
Outline: as §1

SRMS = biological target: T16, SRMS (Homo sapiens, UniProt Q9H3Y6)
T16 construct: purchased Nanosyn (enzymatic panel); SGC in-house recombinant human kinases (DSF panel); Invitrogen (ALK1-6)
Outline: as §1

T5 sequence (P24723 whole entry): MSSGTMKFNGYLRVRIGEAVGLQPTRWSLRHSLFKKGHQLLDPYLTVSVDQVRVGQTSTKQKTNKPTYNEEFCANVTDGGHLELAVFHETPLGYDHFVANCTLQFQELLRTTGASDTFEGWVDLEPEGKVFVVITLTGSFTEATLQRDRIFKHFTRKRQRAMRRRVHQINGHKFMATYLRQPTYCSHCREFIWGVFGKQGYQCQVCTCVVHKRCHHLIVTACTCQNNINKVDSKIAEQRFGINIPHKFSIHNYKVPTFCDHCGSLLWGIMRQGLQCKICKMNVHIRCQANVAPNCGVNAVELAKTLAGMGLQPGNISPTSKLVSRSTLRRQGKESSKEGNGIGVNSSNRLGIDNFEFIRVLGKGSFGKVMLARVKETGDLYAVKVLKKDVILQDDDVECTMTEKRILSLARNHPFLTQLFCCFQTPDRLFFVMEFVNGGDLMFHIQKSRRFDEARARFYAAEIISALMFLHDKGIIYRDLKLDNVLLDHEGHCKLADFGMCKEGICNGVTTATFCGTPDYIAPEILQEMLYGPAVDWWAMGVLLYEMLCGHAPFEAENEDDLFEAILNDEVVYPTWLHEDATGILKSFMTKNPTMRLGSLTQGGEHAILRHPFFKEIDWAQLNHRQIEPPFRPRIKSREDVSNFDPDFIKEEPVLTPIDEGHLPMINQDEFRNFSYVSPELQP
T7 sequence (P07332 whole entry): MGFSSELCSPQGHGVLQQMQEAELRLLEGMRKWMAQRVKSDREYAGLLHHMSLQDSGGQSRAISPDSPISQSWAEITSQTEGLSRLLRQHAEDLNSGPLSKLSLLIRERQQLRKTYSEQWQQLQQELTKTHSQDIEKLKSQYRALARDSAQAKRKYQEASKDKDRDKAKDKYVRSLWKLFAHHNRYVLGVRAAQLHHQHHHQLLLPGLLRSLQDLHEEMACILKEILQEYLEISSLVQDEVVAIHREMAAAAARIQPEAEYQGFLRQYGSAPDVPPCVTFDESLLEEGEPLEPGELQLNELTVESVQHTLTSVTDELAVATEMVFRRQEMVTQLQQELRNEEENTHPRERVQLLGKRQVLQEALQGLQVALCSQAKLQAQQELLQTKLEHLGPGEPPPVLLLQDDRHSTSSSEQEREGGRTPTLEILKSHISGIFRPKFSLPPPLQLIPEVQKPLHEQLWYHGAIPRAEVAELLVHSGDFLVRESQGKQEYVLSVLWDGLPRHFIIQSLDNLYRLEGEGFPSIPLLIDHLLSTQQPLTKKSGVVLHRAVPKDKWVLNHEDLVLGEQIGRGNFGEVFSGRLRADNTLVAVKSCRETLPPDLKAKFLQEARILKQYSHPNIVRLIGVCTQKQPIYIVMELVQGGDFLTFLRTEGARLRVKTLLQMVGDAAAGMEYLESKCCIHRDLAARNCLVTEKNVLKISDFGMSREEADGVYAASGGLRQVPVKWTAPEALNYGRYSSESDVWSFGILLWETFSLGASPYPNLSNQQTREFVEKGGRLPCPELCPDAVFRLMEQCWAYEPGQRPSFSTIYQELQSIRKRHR
T6 sequence (P53355 whole entry): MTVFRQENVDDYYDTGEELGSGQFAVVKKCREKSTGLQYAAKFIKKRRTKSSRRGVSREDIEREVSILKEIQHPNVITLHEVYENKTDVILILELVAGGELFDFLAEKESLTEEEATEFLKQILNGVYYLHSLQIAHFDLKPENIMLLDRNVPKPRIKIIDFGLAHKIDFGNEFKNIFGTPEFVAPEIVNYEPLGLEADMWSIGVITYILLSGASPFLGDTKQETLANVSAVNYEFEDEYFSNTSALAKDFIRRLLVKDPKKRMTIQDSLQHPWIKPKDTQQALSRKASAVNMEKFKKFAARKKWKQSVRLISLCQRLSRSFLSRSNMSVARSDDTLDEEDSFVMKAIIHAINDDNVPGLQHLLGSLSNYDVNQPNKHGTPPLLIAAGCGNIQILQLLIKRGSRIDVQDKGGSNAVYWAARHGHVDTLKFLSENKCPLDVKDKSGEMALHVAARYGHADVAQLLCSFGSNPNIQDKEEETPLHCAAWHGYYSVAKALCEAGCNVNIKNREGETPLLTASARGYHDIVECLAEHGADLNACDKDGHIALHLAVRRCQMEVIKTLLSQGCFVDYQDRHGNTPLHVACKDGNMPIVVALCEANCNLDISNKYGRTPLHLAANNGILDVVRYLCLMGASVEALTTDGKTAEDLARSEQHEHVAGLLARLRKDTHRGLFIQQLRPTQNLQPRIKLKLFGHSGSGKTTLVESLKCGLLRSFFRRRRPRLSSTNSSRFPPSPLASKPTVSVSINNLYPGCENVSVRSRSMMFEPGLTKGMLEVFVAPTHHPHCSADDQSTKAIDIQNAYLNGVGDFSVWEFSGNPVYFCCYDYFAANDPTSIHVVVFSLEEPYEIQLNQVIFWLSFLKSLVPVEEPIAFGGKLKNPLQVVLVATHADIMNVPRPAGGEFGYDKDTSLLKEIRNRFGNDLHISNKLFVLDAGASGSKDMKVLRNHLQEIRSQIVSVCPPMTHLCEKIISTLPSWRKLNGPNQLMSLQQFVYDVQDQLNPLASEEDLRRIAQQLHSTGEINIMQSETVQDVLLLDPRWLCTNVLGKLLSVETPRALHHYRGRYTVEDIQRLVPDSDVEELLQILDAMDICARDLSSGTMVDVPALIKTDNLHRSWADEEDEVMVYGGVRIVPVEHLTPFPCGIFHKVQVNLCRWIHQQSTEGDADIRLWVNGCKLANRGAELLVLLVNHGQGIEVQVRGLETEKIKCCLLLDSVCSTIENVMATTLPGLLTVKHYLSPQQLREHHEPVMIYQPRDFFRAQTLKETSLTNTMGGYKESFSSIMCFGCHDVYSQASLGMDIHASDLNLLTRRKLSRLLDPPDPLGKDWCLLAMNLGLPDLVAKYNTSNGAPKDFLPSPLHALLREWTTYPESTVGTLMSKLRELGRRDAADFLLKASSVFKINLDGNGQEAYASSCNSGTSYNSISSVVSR
T16 sequence (Q9H3Y6 whole entry): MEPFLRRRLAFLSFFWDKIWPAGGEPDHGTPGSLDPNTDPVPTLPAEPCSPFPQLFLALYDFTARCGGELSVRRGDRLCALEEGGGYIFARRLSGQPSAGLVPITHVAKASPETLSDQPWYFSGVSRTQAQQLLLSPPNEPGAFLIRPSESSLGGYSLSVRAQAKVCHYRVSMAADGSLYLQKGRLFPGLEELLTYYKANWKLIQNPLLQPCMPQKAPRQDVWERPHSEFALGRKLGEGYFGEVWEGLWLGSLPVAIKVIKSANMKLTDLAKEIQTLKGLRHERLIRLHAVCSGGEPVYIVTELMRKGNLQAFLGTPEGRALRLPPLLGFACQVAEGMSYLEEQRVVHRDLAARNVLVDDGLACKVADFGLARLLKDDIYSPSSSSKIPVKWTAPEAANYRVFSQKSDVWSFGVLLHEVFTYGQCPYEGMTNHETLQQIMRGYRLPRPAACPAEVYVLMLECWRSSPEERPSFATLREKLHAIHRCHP
T12 sequence (O75914 whole entry): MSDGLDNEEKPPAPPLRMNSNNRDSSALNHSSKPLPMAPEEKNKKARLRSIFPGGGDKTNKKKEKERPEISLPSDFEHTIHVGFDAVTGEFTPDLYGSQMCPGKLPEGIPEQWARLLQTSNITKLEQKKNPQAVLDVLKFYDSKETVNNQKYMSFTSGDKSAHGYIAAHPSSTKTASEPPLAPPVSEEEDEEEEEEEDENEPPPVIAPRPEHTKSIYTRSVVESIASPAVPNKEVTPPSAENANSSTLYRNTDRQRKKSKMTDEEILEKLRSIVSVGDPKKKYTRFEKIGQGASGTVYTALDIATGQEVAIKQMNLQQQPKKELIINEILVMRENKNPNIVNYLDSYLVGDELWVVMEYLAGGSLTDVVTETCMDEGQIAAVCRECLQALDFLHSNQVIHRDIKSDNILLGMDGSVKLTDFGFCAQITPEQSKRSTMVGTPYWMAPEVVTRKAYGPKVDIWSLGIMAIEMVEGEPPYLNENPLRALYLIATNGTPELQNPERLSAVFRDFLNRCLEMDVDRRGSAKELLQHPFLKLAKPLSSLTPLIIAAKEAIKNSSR
T2 sequence (O94804 whole entry): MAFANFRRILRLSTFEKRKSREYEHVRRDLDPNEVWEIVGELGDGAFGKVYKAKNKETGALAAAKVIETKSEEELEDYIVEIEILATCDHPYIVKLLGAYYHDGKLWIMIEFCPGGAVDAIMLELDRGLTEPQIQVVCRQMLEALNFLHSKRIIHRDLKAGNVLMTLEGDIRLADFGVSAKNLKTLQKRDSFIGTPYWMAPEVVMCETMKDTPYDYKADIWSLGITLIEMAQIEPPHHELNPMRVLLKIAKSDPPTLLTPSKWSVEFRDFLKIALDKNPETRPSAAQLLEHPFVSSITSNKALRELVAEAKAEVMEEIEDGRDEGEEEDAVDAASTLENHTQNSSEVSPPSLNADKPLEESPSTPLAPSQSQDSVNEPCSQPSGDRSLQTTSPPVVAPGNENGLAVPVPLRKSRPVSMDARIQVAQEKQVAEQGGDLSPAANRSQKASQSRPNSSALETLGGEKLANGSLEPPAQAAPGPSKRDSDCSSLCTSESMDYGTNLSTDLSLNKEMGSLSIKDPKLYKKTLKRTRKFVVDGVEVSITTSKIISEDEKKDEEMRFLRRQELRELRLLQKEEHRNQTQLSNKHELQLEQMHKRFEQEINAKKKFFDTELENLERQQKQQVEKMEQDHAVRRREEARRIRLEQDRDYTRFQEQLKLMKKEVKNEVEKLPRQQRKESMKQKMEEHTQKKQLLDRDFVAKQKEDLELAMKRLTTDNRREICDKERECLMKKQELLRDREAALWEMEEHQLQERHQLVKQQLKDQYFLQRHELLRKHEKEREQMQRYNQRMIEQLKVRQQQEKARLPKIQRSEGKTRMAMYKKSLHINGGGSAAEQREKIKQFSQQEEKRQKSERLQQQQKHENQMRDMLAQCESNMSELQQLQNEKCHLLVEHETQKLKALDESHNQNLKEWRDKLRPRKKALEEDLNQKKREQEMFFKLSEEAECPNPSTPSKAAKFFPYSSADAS

Compound	inhibition at 0.1 µM (EPHB2)	inhibition at 1 µM (EPHB2)	inhibition at 0.1 µM (LOK)	inhibition at 1 µM (LOK)	inhibition at 0.1 µM (PAK5)	inhibition at 1 µM (PAK5)	inhibition at 0.1 µM (TRKA)	inhibition at 1 µM (TRKA)	inhibition at 0.1 µM (PKCη)	inhibition at 1 µM (PKCη)	inhibition at 0.1 µM (DAPK1)	inhibition at 1 µM (DAPK1)	inhibition at 0.1 µM (FES)	inhibition at 1 µM (FES)	inhibition at 0.1 µM (KDR)	inhibition at 1 µM (KDR)	inhibition at 0.1 µM (CDK1/cycB)	inhibition at 1 µM (CDK1/cycB)	inhibition at 0.1 µM (JNK2)	inhibition at 1 µM (JNK2)	also measured
COc1cc(-c2cc(-c3cccc(O)c3)cnc2N)cc(OC)c1OC [K02288, 3-[6-amino-5-(3,4,5-trimethoxy-phenyl)-pyridin-3-yl]-phenol]	0%	21%	3.5%	25%	-1%	-1%	1.5%	2.8%	-2%	-4%	-1%	-1%	-1%	-1%	0.5%	3.9%	1%	1.5%	0.9%	0%	inhibition at 0.1 µM (CDK4/cycD): 0.1%; inhibition at 1 µM (CDK4/cycD): 1.3%; inhibition at 0.1 µM (PAK3): -3%; inhibition at 1 µM (PAK3): -2%; inhibition at 0.1 µM (CAMK2δ): -1%; inhibition at 1 µM (CAMK2δ): 1.4%; inhibition at 0.1 µM (GSK3α): 0.6%; inhibition at 1 µM (GSK3α): 2.1%; inhibition at 0.1 µM (PKCα): 0.2%; inhibition at 1 µM (PKCα): 2.2%; inhibition at 0.1 µM (SRMS): 0.8%; inhibition at 1 µM (SRMS): 17%
c1ccc2c(-c3cnn4cc(-c5ccc(N6CCNCC6)cc5)cnc34)ccnc2c1 [LDN-193189]	8.4%	24%	8.3%	38%	6.2%	8.5%	1.9%	7.2%	2.2%	-2%	1.5%	0.4%	2.2%	2.4%	19%	69%	0.5%	5%	3.9%	1.3%	inhibition at 0.1 µM (CDK4/cycD): 0.8%; inhibition at 1 µM (CDK4/cycD): 8.3%; inhibition at 0.1 µM (PAK3): 2.9%; inhibition at 1 µM (PAK3): 1.8%; inhibition at 0.1 µM (CAMK2δ): 3.1%; inhibition at 1 µM (CAMK2δ): 8.7%; inhibition at 0.1 µM (GSK3α): 3.2%; inhibition at 1 µM (GSK3α): 1.1%; inhibition at 0.1 µM (PKCα): 1%; inhibition at 1 µM (PKCα): 1.1%; inhibition at 0.1 µM (SRMS): -1%; inhibition at 1 µM (SRMS): 8.9%
